{
  "source": "patent US20230255953A1",
  "about": "“USE OF ROLUPERIDONE IN PREVENTING RELAPSE IN SCHIZOPHRENIA PATIENTS” (Minerva Neurosciences, Inc., priority 2022, published 2023)",
  "key": {"[1]": {"system": "patients with negative symptoms of schizophrenia", "experiment": "Study #1 (MIN-101C03): Personal and Social Performance (PSP)", "type": "in vivo, human", "conditions": "Week 12 DB; for Change from Baseline LS Mean: PSP Disturbing & Aggressive Behavior / Change from Baseline LS Mean: PSP Personal and Social Relationships / Change from Baseline LS Mean: PSP Self-care / Change from Baseline LS Mean: PSP Socially Useful Activities / Change from Baseline LS Mean: PSP Total Score (mapped from the 4 domains) / Effect Size vs Placebo: PSP Disturbing & Aggressive Behavior / Effect Size vs Placebo: PSP Personal and Social Relationships / Effect Size vs Placebo: PSP Self-care / Effect Size vs Placebo: PSP Socially Useful Activities / Effect Size vs Placebo: PSP Total Score (mapped from the 4 domains): ITT", "text": "The PSP is a validated clinician-rated scale intended to reflect real-life situations that measures personal and social functioning in 4 domains: (a) socially useful activities, (b) personal and social relationships, (c) self-care, and (d) disturbing and aggressive behaviors. The score is based on the assessment of a patient's performance in the 4 domains. The PSP Total score is a single measurement of functioning ranging from 1 to 100, where a higher score represents better functioning. A score of 91 to 100 indicates excellent functioning in all 4 main areas; the patient is held in high consideration for their good qualities, copes adequately with life problems, and is involved in a wide range of interests and activities. A score of 1 to 10 indicates a lack of autonomy in basic functioning with extreme behaviors but without survival risk (score 6 to 10) or with survival risk (score 1 to 5). […] Review of the relevant scientific literature and the analysis of the psychometric properties of the 4 domains that result in the generation of the PSP Total score were supportive of the appropriateness and cross-cultural applicability of the use of the PSP in drug development for the indication of negative symptoms of schizophrenia The PSP was assessed at the timepoints described in Table 6. The changes from Baseline in the PSP Total score and individual domain scores after 12 weeks of treatment were exploratory efficacy endpoints in Study MIN-101C03, and the Total score was the key secondary efficacy endpoint and the PSP domain scores were exploratory endpoints in Study MIN-101C07.\n(§1) Phase 2b Study #1 (also referred to herein as “MIN-101C03”) was a Phase 2b, double-blind (“DB”), placebo-controlled, randomized, multicenter 12-week study to evaluate the efficacy, safety, and tolerability of Roluperidone in patients ≥18 years to ≤60 years with negative symptoms of schizophrenia, followed by a 24-week open-label (“OL”) extension. The primary objective of the study was to evaluate the efficacy of Roluperidone compared to placebo in improving the negative symptoms of schizophrenia as measured by the change from Baseline in the PANSS negative factor score of the PSM (“PANSS PSM”) over 12 weeks of treatment.\n(§2) The study consisted of a pretreatment screening period of up to 28 days (including washout), a 12-week, DB, placebo-controlled period, and a 24-week OL period. Eligible patients (who were symptomatically stable for at least 3 months and had scores of at least 20 on the PANSS negative subscale score) were randomized in a 1:1:1 ratio to receive oral Roluperidone (a modified-release, “MR”, formulation) 32 mg QD, Roluperidone 64 mg QD, or placebo for 12 weeks. […] During the 24-week, OL treatment extension period, patients who were initially randomized to Roluperidone 32 mg or 64 mg continued on the same dose, while patients who were initially randomized to placebo crossed over to Roluperidone 32 mg or 64 mg in a 1:1 ratio."}, "[2]": {"system": "patients with negative symptoms of schizophrenia", "experiment": "Study #1 (MIN-101C03): Brief Assessment of Cognition in Schizophrenia", "type": "in vivo, human", "set-up": "Change from Baseline LS Mean: Brief Assessment of Cognition in Schizophrenia Total Score / Change from Baseline LS Mean: Brief Assessment of Cognition in Schizophrenia Total Verbal Fluency: unit not given here", "conditions": "Week 12 DB, ITT", "text": "as §1, §2"}, "[3]": {"system": "patients with negative symptoms of schizophrenia", "experiment": "Study #1 (MIN-101C03): rate of relapse", "type": "in vivo, human", "conditions": "for Rate of relapse (%) / Rate of relapse (number of patients): DB period, MIN-101C03", "procedure": "“Time to relapse” in the DB period is defined as the number of days from Day 1 to the date of early trial termination due to relapse. […] Treatment differences in time to relapse in the DB period were analyzed using a Cox-regression model with treatment group and Baseline PANSS total score as covariates. For the analysis of the OL period, this analysis was repeated to analyze treatment differences in time to relapse in the study. For the OL period analysis, patients who were not observed to relapse in the study were censored on the date on which they ended the study. Kaplan-Meier plots of time to relapse in the DB period, OL period, and in the study were generated.\nIn some embodiments, for any of the methods disclosed herein, a relapse refers to a patient who is terminated early during treatment (or a study trial) due to worsening of psychosis or an adverse event or generalized symptom in Table 1.\nas §1, §2"}, "schizophrenia patient": {"system": "schizophrenia patient", "experiment": "Case report Patient X: Roluperidone monotherapy over 2+ years", "type": "in vivo, human", "conditions": "64 mg/day monotherapy, two years", "procedure": "Patient X presented with flat effect and restricted emotional expression, poor motivation to do much more than watch television and occasionally participate in occupational therapy for a few hours a week. Patient could not fully concentrate enough to even read. During the course of monotherapy with Roluperidone (64 mg/day), patient saw gradual improvement in their negative and cognitive symptoms. This allowed the patient to find employment. Their affect is no longer restricted and they read full novels on a regular basis with no trouble concentrating, and enjoys and looks forward to all their various daily activities."}, "serotoninergic 5-HT2A": {"target": "serotoninergic 5-HT2A (Homo sapiens, UniProt P28223)", "sequence (P28223 whole entry)": "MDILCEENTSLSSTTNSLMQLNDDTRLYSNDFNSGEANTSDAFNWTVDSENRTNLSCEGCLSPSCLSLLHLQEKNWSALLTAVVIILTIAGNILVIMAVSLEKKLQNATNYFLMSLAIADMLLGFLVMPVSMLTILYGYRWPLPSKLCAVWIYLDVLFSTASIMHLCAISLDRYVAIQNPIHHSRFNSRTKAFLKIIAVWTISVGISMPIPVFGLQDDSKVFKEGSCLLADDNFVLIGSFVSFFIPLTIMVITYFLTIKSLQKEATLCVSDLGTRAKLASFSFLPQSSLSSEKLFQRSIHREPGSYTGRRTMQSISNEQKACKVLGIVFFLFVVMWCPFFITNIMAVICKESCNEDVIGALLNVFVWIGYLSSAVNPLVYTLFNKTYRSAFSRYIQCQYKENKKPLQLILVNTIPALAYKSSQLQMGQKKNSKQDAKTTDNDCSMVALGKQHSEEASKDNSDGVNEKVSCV", "conditions": "background statement; cited from earlier work"}, "sigma2": {"target": "sigma2 (Homo sapiens, UniProt Q5BJF2)", "sequence (Q5BJF2 whole entry)": "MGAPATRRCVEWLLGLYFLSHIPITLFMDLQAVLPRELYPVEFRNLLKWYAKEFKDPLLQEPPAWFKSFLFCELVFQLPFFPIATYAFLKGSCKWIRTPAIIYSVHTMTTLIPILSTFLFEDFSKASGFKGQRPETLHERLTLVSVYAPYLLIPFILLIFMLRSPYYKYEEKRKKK", "conditions": "background statement; cited from earlier work"}, "[4]": {"system": "dopaminergic (DA) receptors", "conditions": "background statement; cited from earlier work"}, "cholinergic receptors": {"system": "cholinergic receptors", "conditions": "background statement; cited from earlier work"}},
  "data": [
    {"substance": "1H-Isoindol-1-one,2-[ [1-[2-(4-fluorophenyl)-2-oxoethyl]-4-piperidinyl]methyl]-2,3-dihydro-, hydrochloride, hydrate (1:1:2) [Roluperidone]", "values": [
      {"measurement": "Effect Size vs Placebo: 7-Point improvement in PSP Total Score responders", "setting": "[1]; 32 mg QD", "value": 0.05},
      {"measurement": "Effect Size vs Placebo: 10-Point improvement in PSP Total Score responders", "setting": "[1]; 32 mg QD", "value": 0.05},
      {"measurement": "Number of Patients with 7-Point improvement in PSP Total Score at Week 12", "setting": "[1]; 32 mg QD", "value": "17/50"},
      {"measurement": "Number of Patients with 10-Point improvement in PSP Total Score at Week 12", "setting": "[1]; 32 mg QD", "value": "17/50"},
      {"measurement": "Patients with 7-Point improvement in PSP Total Score at Week 12 (%)", "setting": "[1]; 32 mg QD", "value": "(34%)"},
      {"measurement": "Patients with 10-Point improvement in PSP Total Score at Week 12 (%)", "setting": "[1]; 32 mg QD", "value": "(34%)"},
      {"measurement": "Change from Baseline LS Mean: PSP Disturbing & Aggressive Behavior", "setting": "[1]; 32 mg QD", "value": "−0.15"},
      {"measurement": "Change from Baseline LS Mean: PSP Personal and Social Relationships", "setting": "[1]; 32 mg QD", "value": "−0.22"},
      {"measurement": "Change from Baseline LS Mean: PSP Self-care", "setting": "[1]; 32 mg QD", "value": "−0.37"},
      {"measurement": "Change from Baseline LS Mean: PSP Socially Useful Activities", "setting": "[1]; 32 mg QD", "value": "−0.41"},
      {"measurement": "Change from Baseline LS Mean: PSP Total Score (mapped from the 4 domains)", "setting": "[1]; 32 mg QD", "value": 1.77},
      {"measurement": "Effect Size vs Placebo: PSP Disturbing & Aggressive Behavior", "setting": "[1]; 32 mg QD", "value": 0.36},
      {"measurement": "Effect Size vs Placebo: PSP Personal and Social Relationships", "setting": "[1]; 32 mg QD", "value": 0.02},
      {"measurement": "Effect Size vs Placebo: PSP Self-care", "setting": "[1]; 32 mg QD", "value": 0.27},
      {"measurement": "Effect Size vs Placebo: PSP Socially Useful Activities", "setting": "[1]; 32 mg QD", "value": 0.14},
      {"measurement": "Effect Size vs Placebo: PSP Total Score (mapped from the 4 domains)", "setting": "[1]; 32 mg QD", "value": "−0.01"},
      {"measurement": "Effect Size vs Placebo: 7-Point improvement in PSP Total Score responders", "setting": "[1]; 64 mg QD", "value": 0.17},
      {"measurement": "Effect Size vs Placebo: 10-Point improvement in PSP Total Score responders", "setting": "[1]; 64 mg QD", "value": 0.17},
      {"measurement": "Number of Patients with 7-Point improvement in PSP Total Score at Week 12", "setting": "[1]; 64 mg QD", "value": "26/54"},
      {"measurement": "Number of Patients with 10-Point improvement in PSP Total Score at Week 12", "setting": "[1]; 64 mg QD", "value": "26/54"},
      {"measurement": "Change from Baseline LS Mean: PSP Disturbing & Aggressive Behavior", "setting": "[1]; 64 mg QD", "value": "−0.24"},
      {"measurement": "Change from Baseline LS Mean: PSP Personal and Social Relationships", "setting": "[1]; 64 mg QD", "value": "−0.56"},
      {"measurement": "Change from Baseline LS Mean: PSP Self-care", "setting": "[1]; 64 mg QD", "value": "−0.48"},
      {"measurement": "Change from Baseline LS Mean: PSP Socially Useful Activities", "setting": "[1]; 64 mg QD", "value": "−0.57"},
      {"measurement": "Change from Baseline LS Mean: PSP Total Score (mapped from the 4 domains)", "setting": "[1]; 64 mg QD", "value": 8.52},
      {"measurement": "Effect Size vs Placebo: PSP Disturbing & Aggressive Behavior", "setting": "[1]; 64 mg QD", "value": 0.51},
      {"measurement": "Effect Size vs Placebo: PSP Personal and Social Relationships", "setting": "[1]; 64 mg QD", "value": 0.53},
      {"measurement": "Effect Size vs Placebo: PSP Self-care", "setting": "[1]; 64 mg QD", "value": 0.46},
      {"measurement": "Effect Size vs Placebo: PSP Socially Useful Activities", "setting": "[1]; 64 mg QD", "value": 0.38},
      {"measurement": "Effect Size vs Placebo: PSP Total Score (mapped from the 4 domains)", "setting": "[1]; 64 mg QD", "value": 0.56},
      {"measurement": "Change from Baseline LS Mean: Brief Assessment of Cognition in Schizophrenia Total Score", "setting": "[2]; 32 mg QD", "value": 23.8},
      {"measurement": "Change from Baseline LS Mean: Brief Assessment of Cognition in Schizophrenia Total Verbal Fluency", "setting": "[2]; 32 mg QD", "value": 5.76},
      {"measurement": "Effect Size vs Placebo: Brief Assessment of Cognition in Schizophrenia Total Score", "setting": "[2]; 32 mg QD", "value": 0.43},
      {"measurement": "Effect Size vs Placebo: Total Verbal Fluency", "setting": "[2]; 32 mg QD", "value": 0.51},
      {"measurement": "Change from Baseline LS Mean: Brief Assessment of Cognition in Schizophrenia Total Score", "setting": "[2]; 64 mg QD", "value": 14.9},
      {"measurement": "Change from Baseline LS Mean: Brief Assessment of Cognition in Schizophrenia Total Verbal Fluency", "setting": "[2]; 64 mg QD", "value": 4.37},
      {"measurement": "Effect Size vs Placebo: Brief Assessment of Cognition in Schizophrenia Total Score", "setting": "[2]; 64 mg QD", "value": 0.12},
      {"measurement": "Effect Size vs Placebo: Total Verbal Fluency", "setting": "[2]; 64 mg QD", "value": 0.36},
      {"measurement": "Rate of relapse (%)", "setting": "[3]; 32 mg", "value": 7, "unit": "%"},
      {"measurement": "Rate of relapse (number of patients)", "setting": "[3]; 32 mg", "value": 5},
      {"measurement": "Rate of relapse (%)", "setting": "[3]; 64 mg", "value": 9, "unit": "%"},
      {"measurement": "Rate of relapse (number of patients)", "setting": "[3]; 64 mg", "value": 7},
      {"measurement": "Relapse by study phase", "setting": "[3]; Study #1 (n = 244), all subjects, Double-blind (12-weeks)", "value": 11.5, "unit": "%"},
      {"measurement": "Relapse overall (discontinued because of positive symptoms worsening)", "setting": "[3]; Study #1 (n = 244), Overall (over 36 weeks)", "value": 15.2, "unit": "%"},
      {"measurement": "Relapse by study phase", "setting": "[3]; Study #1, Open-label (over 24 weeks)", "value": 6, "unit": "%"},
      {"measurement": "Relapse under monotherapy", "setting": "schizophrenia patient", "value": "has not had a relapse"},
      {"measurement": "Antagonistic activity", "setting": "serotoninergic 5-HT2A", "value": "antagonistic activities"},
      {"measurement": "Antagonistic activity", "setting": "sigma2", "value": "antagonistic activities"},
      {"measurement": "Affinity", "setting": "[4]", "value": "very low or no affinity"},
      {"measurement": "Affinity", "setting": "cholinergic receptors", "value": "very low or no affinity"}
    ]}
  ]
}
